Reference: the NIST ThermoML archive (doi:10.1021/acs.jced.9b00074)
Numbers after ± are expanded uncertainties.

Assay: xn = mol fraction of the nth substance listed
Conditions: 100 kPa, Liquid; for viscosity: Falling or rolling sphere viscometry; for mass density: Vibrating tube method

CC12CC3CC(C1)CC(C)(C3)C2 [1,3-dimethyladamantane] + OC1CCCC1
Conditions | mass density, 293.15 K [kg/m3] | mass density, 298.15 K [kg/m3] | mass density, 303.15 K [kg/m3] | mass density, 308.15 K [kg/m3] | viscosity, 293.15 K [mPa·s] | viscosity, 298.15 K [mPa·s] | viscosity, 303.15 K [mPa·s] | viscosity, 308.15 K [mPa·s] | viscosity, 313.15 K [mPa·s]
x2 = 0.0963 | 903.9 ± 0.55 | 900.22 ± 0.54 | 896.53 ± 0.54 | 892.84 ± 0.54 | 3.868 ± 0.082 | 3.42 ± 0.073 | 3.048 ± 0.065 | 2.729 ± 0.058 | 2.457 ± 0.052
x2 = 0.1973 | 906.97 ± 0.55 | 903.23 ± 0.55 | 899.47 ± 0.54 | 895.7 ± 0.54 | 4.123 ± 0.088 | 3.627 ± 0.077 | 3.212 ± 0.068 | 2.863 ± 0.061 | 2.565 ± 0.055
x2 = 0.3101 | 910.8 ± 0.55 | 907 ± 0.55 | 903.18 ± 0.55 | 899.33 ± 0.54 | 4.531 ± 0.096 | 3.953 ± 0.084 | 3.477 ± 0.074 | 3.076 ± 0.065 | 2.736 ± 0.058
x2 = 0.4019 | 914.34 ± 0.55 | 910.49 ± 0.55 | 906.62 ± 0.55 | 902.72 ± 0.55 | 4.967 ± 0.11 | 4.3 ± 0.091 | 3.756 ± 0.08 | 3.302 ± 0.07 | 2.919 ± 0.062
x2 = 0.4995 | 918.49 ± 0.55 | 914.58 ± 0.55 | 910.65 ± 0.55 | 906.7 ± 0.55 | 5.61 ± 0.12 | 4.805 ± 0.1 | 4.154 ± 0.088 | 3.618 ± 0.077 | 3.174 ± 0.067
x2 = 0.5999 | 923.27 ± 0.56 | 919.31 ± 0.56 | 915.31 ± 0.55 | 911.29 ± 0.55 | 6.396 ± 0.14 | 5.428 ± 0.12 | 4.643 ± 0.099 | 4.007 ± 0.085 | 3.484 ± 0.074
x2 = 0.6997 | 928.58 ± 0.56 | 924.57 ± 0.56 | 920.53 ± 0.56 | 916.45 ± 0.55 | 7.57 ± 0.16 | 6.304 ± 0.13 | 5.319 ± 0.11 | 4.532 ± 0.096 | 3.891 ± 0.083
x2 = 0.7976 | 934.17 ± 0.56 | 930.15 ± 0.56 | 926.1 ± 0.56 | 922.01 ± 0.56 | 8.863 ± 0.19 | 7.3 ± 0.15 | 6.092 ± 0.13 | 5.135 ± 0.11 | 4.365 ± 0.093
x2 = 0.9003 | 940.6 ± 0.57 | 936.59 ± 0.57 | 932.59 ± 0.56 | 928.43 ± 0.56 | 10.32 ± 0.22 | 8.417 ± 0.18 | 6.972 ± 0.15 | 5.829 ± 0.12 | 4.915 ± 0.1
